Consider eleven compounds from patent publication US11440923B2, “Substituted macrocyclic indole derivatives” (Bayer Aktiengesellschaft, priority 2017, dated 2022).

Data set [1] deals with SUDHL10 cells. As to the kind of experiment: Induction of caspase-3/7 activity in SUDHL10 cells (Assay 4). It counts as cell-based. An outline of the steps: (§1)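 Caspase-3/7 activity measured in DLBCL lines after 3 h compound exposure at 37 °C, following overnight plating; Caspase-Glo 3/7 luminescence read after 1 h at 37 °C. Medium-only background subtracted, values normalized to mean of DMSO-treated cells.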

Another data set has as its target BCL-2 (Homo sapiens (Human), UniProt P10415). The data set is described as follows: Protein-protein interaction assay BCL-2/Bad BH3 peptide (BCL-2 assay, TR-FRET). It counts as binding. The settings on record: read-out: BCL-2 Assay IC50 (median). The essentials:
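His-tagged BCL-2 (aa 1-211, E. coli, 1 nM) preincubated 10 min at 22° C with compound (0.1 nM-20 μM), then 1 nM biotinylated Bad BH3 peptide with anti-His-Eu/streptavidin-XL665 added. Buffer: 50 mM Tris pH 7, 100 mM NaCl, 50 mM KF, 2 mM DTT. Incubated 1 h at 22° C, then overnight at 4° C. 665/620 ratio normalized; IC50 by 4-parameter fit.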
On the technique in general: In TR-FRET formats the signal depends on donor and acceptor labels being close together.

Data set [2] concerns SUDHL5 cells. As to the kind of experiment: Induction of cytotoxicity in SUDHL5 cells (Assay 6). It counts as cell-based. The essentials:
(§2)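 SUDHL5 and SUDHL10 cells plated and held overnight at 37° C, then incubated 5 h at 37° C with compound. Viability measured by CellTiter-Glo luminescence after 15 min shaking at room temperature. Cell-free medium wells served as control.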

For data set [3], the system named is SUDHL5 cells. The data set is described as follows: Induction of caspase-3/7 activity in SUDHL5 cells (Assay 4). It counts as cell-based. The essentials:
as §1

The test system of data set [4] is SUDHL10 cells. As to the kind of experiment: Induction of cytotoxicity in SUDHL10 cells (Assay 6). It is filed as cell-based. The essentials: as §2
[5] abbreviates: caspase-3/7 induction, 3 h; read-out: Caspase SUDHL10 EC50 (median).
Where [6] appears, read: 5 h, CellTiter-Glo; read-out: Cytotox SUDHL5 IC50 (median).
[7] abbreviates: caspase-3/7 induction, 3 h; read-out: Caspase SUDHL5 EC50 (median).
Where [8] appears, read: 5 h, CellTiter-Glo; read-out: Cytotox SUDHL10 IC50 (median).
The mark [9] stands for this setting: read-out: Caspase SUDHL10 EC50 (median); caspase-3/7 induction, 3 h.
Setting [10] is: read-out: Caspase SUDHL5 EC50 (median); caspase-3/7 induction, 3 h.
Where [11] appears, read: read-out: Cytotox SUDHL5 IC50 (median); 5 h, CellTiter-Glo.
Setting [12] is: read-out: Cytotox SUDHL10 IC50 (median); 5 h, CellTiter-Glo.

Each structure is given as a SMILES string. pEC50, pIC50: −log10 of the molar value. Counter-ions that a name gives are not always drawn. Like-named read-outs stand apart in the source and are kept apart here.

BCL-2, sequence (P10415 1-211): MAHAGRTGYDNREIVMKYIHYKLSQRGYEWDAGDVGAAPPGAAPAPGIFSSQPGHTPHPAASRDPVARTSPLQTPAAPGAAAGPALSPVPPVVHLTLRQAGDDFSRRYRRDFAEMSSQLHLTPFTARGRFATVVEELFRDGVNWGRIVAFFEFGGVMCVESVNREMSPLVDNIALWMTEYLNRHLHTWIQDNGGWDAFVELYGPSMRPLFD

In the case of `Cc1c2c(nn1C)C(CCO)OCCCCn1c(C(=O)O)c(CCCOc3cccc4ccccc34)c3ccc(Cl)c-2c31` (single isomer, unassigned; enantiomer 2) [Example 32, (−)-4-chloro-15-(2-hydroxyethyl)-2,3-dimethyl-7-{3-[(naphthalen-1-yl)oxy]propyl}-2,10,11,12,13,15-hexahydropyrazolo[4′,3′:9,10][1,6]oxazacycloundecino[8,7,6-hi]indole-8-carboxylic Acid (Enantiomer 2)], the negative logarithm of the EC50 (pEC50) in the data set with SUDHL10 cells [1] (setting [5]) and in the data set on SUDHL5 cells [3] (setting [7]) was under 4.48 throughout. Moreover, the results for the pIC50 on BCL-2, with SUDHL5 cells [2] (setting [6]) and in the data set on SUDHL10 cells [4] (setting [8]) were under 4.70, under 4.48 and under 4.48, respectively.

Turning to `Cc1c2c(nn1C)C(C1CC1)OCCCCn1c(C(=O)O)c(CCCOc3cccc4ccccc34)c3ccc(Cl)c-2c31` (single isomer, unassigned; enantiomer 2) [Example 36, (−)-4-chloro-15-cyclopropyl-2,3-dimethyl-7-{3-[(naphthalen-1-yl)oxy]propyl}-2,10,11,12,13,15-hexahydropyrazolo[4′,3′:9,10][1,6]oxazacycloundecino[8,7,6-hi]indole-8-carboxylic Acid N-ethylethanamine Salt (Enantiomer 2)], the pEC50 (in general, −log10 of the EC50, conventionally taken in molar units) in the data set with SUDHL10 cells [1] (setting [9]) was 4.57; in the data set with SUDHL5 cells [3] (setting [10]) it was under 4.48. Further, the negative-log IC50 (pIC50) (commonly the negative decadic logarithm of the IC50, by convention in mol/L) at BCL-2 is 4.84; in the data set on SUDHL5 cells [2] (setting [6]), 4.68; in the data set on SUDHL10 cells [4] (setting [8]) it was 4.57.

Take `CCc1c2c(nn1C)C(CCOC)OCCCCn1c(C(=O)O)c(CCCOc3cccc4cc(F)ccc34)c3ccc(Cl)c-2c31` (single isomer, unassigned; enantiomer 2) [Example 43, (−)-4-chloro-3-ethyl-7-{3-[(6-fluoronaphthalen-1-yl)oxy]propyl}-15-(2-methoxyethyl)-2-methyl-2,10,11,12,13,15-hexahydropyrazolo[4′,3′:9,10][1,6]oxazacycloundecino[8,7,6-hi]indole-8-carboxylic Acid—N-ethylethanamine Salt (Enantiomer 2)]: the negative-log EC50 (pEC50) was 4.62 in the data set on SUDHL10 cells [1] (setting [9]) and 4.70 in the data set with SUDHL5 cells [3] (setting [10]). The pIC50 at BCL-2 was 4.71; with SUDHL5 cells [2] (setting [6]), 4.74; with SUDHL10 cells [4] (setting [8]), 4.72.

With `CCc1c2c(nn1C)C(CCO)OCCCCn1c(C(=O)O)c(CCCOc3cccc4cc(F)ccc34)c3ccc(Cl)c-2c31` (single isomer, unassigned; enantiomer 2) [Example 46, (−)-4-chloro-3-ethyl-7-{3-[(6-fluoronaphthalen-1-yl)oxy]propyl}-15-(2-hydroxyethyl)-2-methyl-2,10,11,12,13,15-hexahydropyrazolo[4′,3′:9,10][1,6]oxazacycloundecino[8,7,6-hi]indole-8-carboxylic Acid (Enantiomer 2)], the results for the negative-log EC50 (pEC50) in the data set on SUDHL10 cells [1] (setting [5]) and with SUDHL5 cells [3] (setting [7]) were 5.40 and 5.31, respectively. The pIC50 was under 4.70 at BCL-2, 5.37 in the data set on SUDHL5 cells [2] (setting [6]) and 5.26 in the data set with SUDHL10 cells [4] (setting [8]).

On to `CCc1c2c(nn1C)C(CCN1CCOCC1)OCCCCn1c(C(=O)O)c(CCCOc3cccc4cc(F)ccc34)c3ccc(F)c-2c31` (single isomer, unassigned; enantiomer 2) [Example 51, (−)-3-ethyl-4-fluoro-7-{3-[(6-fluoronaphthalen-1-yl)oxy]propyl}-2-methyl-15-[2-(morpholin-4-yl)ethyl]-2,10,11,12,13,15-hexahydropyrazolo[4′,3′:9,10][1,6]oxazacycloundecino[8,7,6-hi]indole-8-carboxylic Acid (Enantiomer 2)], for which the negative logarithm of the EC50 (pEC50) in the data set with SUDHL10 cells [1] (setting [5]) was 5.01; in the data set with SUDHL5 cells [3] (setting [7]), 5.30. For the same compound, the negative logarithm of the IC50 (pIC50) on BCL-2 was under 4.70; in the data set on SUDHL5 cells [2] (setting [6]), 5.47; in the data set with SUDHL10 cells [4] (setting [8]) it was 5.43.

In the case of `CCc1c2c(nn1C)C(CCN1CCC(F)(F)C1)OCCCCn1c(C(=O)O)c(CCCOc3cccc4cc(F)ccc34)c3ccc(Cl)c-2c31` (single isomer, unassigned; enantiomer 2) [Example 57, 4-chloro-15-[2-(3,3-difluoropyrrolidin-1-yl)ethyl]-3-ethyl-7-{3-[(6-fluoronaphthalen-1-yl)oxy]propyl}-2-methyl-2,10,11,12,13,15-hexahydropyrazolo[4′,3′:9,10][1,6]oxazacycloundecino[8,7,6-hi]indole-8-carboxylic Acid N-ethylethanamine Salt (Enantiomer 2)], the pEC50 was 5.11 in the data set on SUDHL10 cells [1] (setting [9]) and 5.13 in the data set on SUDHL5 cells [3] (setting [10]). Besides, the pIC50 on BCL-2 was under 4.70; with SUDHL5 cells [2] (setting [6]) it was 5.17; with SUDHL10 cells [4] (setting [8]) it was 5.00.

For `CCc1c2c(nn1C)C(CCC1CCOCC1)OCCCCn1c(C(=O)O)c(CCCOc3cccc4cc(F)ccc34)c3ccc(Cl)c-2c31` (single isomer, unassigned; enantiomer 2) [Example 62, (−)-4-chloro-3-ethyl-7-{3-[(6-fluoronaphthalen-1-yl)oxy]propyl}-2-methyl-15-[2-(oxan-4-yl)ethyl]-2,10,11,12,13,15-hexahydropyrazolo[4′,3′:9,10][1,6]oxazacycloundecino[8,7,6-hi]indole-8-carboxylic Acid (Enantiomer 2)], the negative-log EC50 (pEC50) is 5.16 in the data set on SUDHL10 cells [1] (setting [5]) and 5.38 in the data set on SUDHL5 cells [3] (setting [7]). Also, the pIC50 at BCL-2 is under 4.70; with SUDHL5 cells [2] (setting [6]), 5.20; in the data set on SUDHL10 cells [4] (setting [8]), 5.11.

In the case of `CCc1c2c(nn1C)C(CC(C)(C)O)OCCCCn1c(C(=O)O)c(CCCOc3cccc4cc(F)ccc34)c3ccc(Cl)c-2c31` (single isomer, unassigned; enantiomer 21) [Example 54, (−)-4-chloro-3-ethyl-7-{3-[(6-fluoronaphthalen-1-yl)oxy]propyl}-15-(2-hydroxy-2-methylpropyl)-2-methyl-2,10,11,12,13,15-hexahydropyrazolo[4′,3′:9,10][1,6]oxazacycloundecino[8,7,6-hi]indole-8-carboxylic Acid—N-ethylethanamine Salt (Enantiomer 21], the negative logarithm of the EC50 (pEC50) with SUDHL10 cells [1] (setting [9]) is 4.85; with SUDHL5 cells [3] (setting [10]), 5.19. For the same compound, the pIC50 at BCL-2 is under 4.70; with SUDHL5 cells [2] (setting [6]) it was 5.03; in the data set with SUDHL10 cells [4] (setting [8]) it was 4.77.

Take `Cc1c2c(nn1C)C(C)OCCCCn1c(C(=O)O)c(CCCOc3cccc4ccccc34)c3cccc-2c31` (single isomer, unassigned; stereoisomer 1) [Example 2, 2,3,15-trimethyl-7-[3-(naphthalen-1-yloxy)propyl]-2,10,11,12,13,15-hexahydropyrazolo[4′,3′:9,10][1,6]oxazacycloundecino[8,7,6-hi]indole-8-carboxylic Acid Trifluoroacetic Acid Salt (Stereoisomer 1)]: the pEC50 is 5.60 with SUDHL10 cells [1] (setting [9]) and 5.92 in the data set on SUDHL5 cells [3] (setting [10]). Besides, the results for the negative-log IC50 (pIC50) on BCL-2, in the data set on SUDHL5 cells [2] (setting [11]) and in the data set with SUDHL10 cells [4] (setting [12]) were under 4.70, 5.89 and 5.60, respectively.

For `Cc1c2c(nn1C)C(C)OCCCCn1c(C(=O)O)c(CCCOc3cccc4ccccc34)c3cccc-2c31` (single isomer, unassigned; stereoisomer 2) [Example 3, 2,3,15-trimethyl-7-[3-(naphthalen-1-yloxy)propyl]-2,10,11,12,13,15-hexahydropyrazolo[4′,3′:9,10][1,6]oxazacycloundecino[8,7,6-hi]indole-8-carboxylic Acid Trifluoroacetic Acid Salt (Stereoisomer 2)], the pEC50 with SUDHL10 cells [1] (setting [9]) and in the data set with SUDHL5 cells [3] (setting [10]) was under 4.48 throughout. In addition, the pIC50 at BCL-2 was under 4.70; with SUDHL5 cells [2] (setting [11]), under 4.48; in the data set with SUDHL10 cells [4] (setting [12]), 4.59.

In the case of `Cc1c2c(nn1C)C(CCN1CCOCC1)OCCCCn1c(C(=O)O)c(CCCOc3cccc4ccccc34)c3cccc-2c31` (single isomer, unassigned; stereoisomer 2) [Example 6, 2,3-dimethyl-15-[2-(morpholin-4-yl)ethyl]-7-[3-(naphthalen-1-yloxy)propyl]-2,10,11,12,13,15-hexahydropyrazolo[4′,3′:9,10][1,6]oxazacycloundecino[8,7,6-hi]indole-8-carboxylic Acid (Stereoisomer 2)], the values for the negative logarithm of the EC50 (pEC50) in the data set with SUDHL10 cells [1] (setting [5]) and in the data set with SUDHL5 cells [3] (setting [7]) were 4.51 and 4.66, respectively. The results for the pIC50 on BCL-2, with SUDHL5 cells [2] (setting [6]) and with SUDHL10 cells [4] (setting [8]) were under 4.70, 4.66 and 4.54, respectively.
